This experiment has as its target Vasopressin V2 receptor (Canis lupus familiaris). The experiment in a line: Binding affinity of compound towards Vasopressin receptor by binding [3H]LVP to dog renal medullary preparation.

For `CCOc1ccc(C[C@@H]2NC(=O)CC3(CCC(C)CC3)SSC[C@H](C(=O)N[C@@H](CCCN=C(N)N)C(=O)N[C@@H](CCCN=C(N)N)C(N)=O)NC(=O)[C@H](CC(N)=O)NC(=O)[C@H](C(C)C)NC(=O)[C@H](Cc3ccccc3)NC2=O)cc1` (some centres not stated) [19-Benzyl-13-carbamoylmethyl-22-(4-ethoxy-benzyl)-16-isopropyl-3-methyl-12,15,18,21,24-pentaoxo-7,8-dithia-11,14,17,20,23-pentaaza-spiro[5.19]pentacosane-10-carboxylic acid [1-(1-carbamoyl-4-guanidino-butylcarbamoyl)-4-guanidino-butyl]-amide], the Ki is 0.7 nM.
`CCOc1ccc(C[C@@H]2NC(=O)CC3(CCCCC3)SSC[C@H](C(=O)N[C@@H](CCCN=C(N)N)C(=O)N[C@@H](CCCN=C(N)N)C(N)=O)NC(=O)[C@@H](CC(N)=O)NC(=O)[C@H](C(C)C)NC(=O)[C@@H](Cc3ccccc3)NC2=O)cc1` [19-Benzyl-13-carbamoylmethyl-22-(4-ethoxy-benzyl)-16-isopropyl-12,15,18,21,24-pentaoxo-7,8-dithia-11,14,17,20,23-pentaaza-spiro[5.19]pentacosane-10-carboxylic acid [1-(1-carbamoyl-4-guanidino-butylcarbamoyl)-4-guanidino-butyl]-amide] came in with a Ki of 0.5 nM.

These data come from BindingDB's records for doi:10.1021/jm00124a025 (Smith Kline & French Laboratories, 1989).
